This passage reports Kd results from publication PMC3582901 (Angewandte Chemie (International ed. in English), 2011).

Molecules are shown by their SMILES.

This assay addresses DYNLL1 (dynein light chain type 1) (Homo sapiens, UniProt P63167). Nature of the assay: isothermal titration calorimetry. In kind it is binding. On the technique in general: ITC needs no label: the signal is the heat of the interaction.

Sequence of DYNLL1 (dynein light chain type 1) (P63167 whole entry): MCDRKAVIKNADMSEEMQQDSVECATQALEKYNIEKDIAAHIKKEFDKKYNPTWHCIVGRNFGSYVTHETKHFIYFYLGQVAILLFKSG

For `C=C(C)[C@@H](CC[C@]1(C)O[C@@H]([C@](C)(O)[C@@H]2CC[C@H]3O[C@@H]([C@]4(C)CC[C@@H](Br)C(C)(C)O4)CC[C@]3(C)O2)C[C@H]1O)OC` [1a, aplysqualenol A], binding was characterised by a dissociation constant (Kd) of 840 ± 310 nM.
